Article PMC12040169 (PLOS Biology, 2025)

Experiment: in vitro
Settings: human, hela cells, % viability

CC(=O)Nc1ccc(Oc2cc(C)nc(C3CCNCC3)c2)cc1 [CBK283468]
viability at 28.5 h, 10 µM: 86.5%

CN(C)Cc1cc(-c2ccc(CNC(=O)C3CC3)cc2)nn1C [CBK283470]
viability at 28.5 h, 10 µM: 80.5%

CC(=O)NCCn1nc(-c2ccccc2F)cc1CN(C)C [CBK283473]
viability at 28.5 h, 10 µM: 95.7%

CCCC(=O)NC[C@H]1CC[C@H](c2ccnc3cc(C)nn32)CC1 [CBK283474]
viability at 28.5 h, 10 µM: 102%

Cc1cc2nccc([C@H]3CC[C@H](CNC(=O)C(C)C)CC3)n2n1 [CBK283475]
viability at 28.5 h, 10 µM: 94.9%

CC(C)CN1C[C@H]2N(C)C(=O)c3ccccc3C(=O)[C@@]2(C)C1 [CBK283477]
viability at 28.5 h, 10 µM: 86.6%

CCN1C(=O)c2ccccc2C(=O)[C@@]2(C)CN(C)C[C@@H]12 [CBK283478]
viability at 28.5 h, 10 µM: 88.3%

CCN1C(=O)c2ccccc2C(=O)[C@@]2(C)CN(C(C)C)C[C@@H]12 [CBK283480]
viability at 28.5 h, 10 µM: 109%

CN1C(=O)c2ccccc2C(=O)[C@@]2(C)CN(CC(C)(C)C)C[C@@H]12 [CBK283481]
viability at 28.5 h, 10 µM: 93.8%

O=C(C1CCCO1)N1CCC(c2ccc(F)cc2)CC1 (stereo not drawn) [CBK283484]
viability at 28.5 h, 10 µM: 81.4%

O=C1CC2(CCN(C(=O)C3CCCC3)CC2)Oc2ccccc21 [CBK283485]
viability at 28.5 h, 10 µM: 94.9%

CCC(=O)N1CCC2(CC1)Nc1ccccc1-n1cccc12 [CBK283488]
viability at 28.5 h, 10 µM: 108%

O=C(c1cccs1)N1CCC2(CC1)Nc1ccccc1-n1cccc12 [CBK283489]
viability at 28.5 h, 10 µM: 99.3%

OC1(c2ccc(F)cc2)CC2CCC(C1)N2Cc1ccccn1 (stereo not drawn) [CBK283490]
viability at 28.5 h, 10 µM: 108%

CC(=O)NC1(c2ccc(F)cc2)CCN(C(=O)C(C)C)CC1 [CBK283491]
viability at 28.5 h, 10 µM: 103%

CC(=O)NC1(c2ccc(F)cc2)CCN(C(=O)C2CCC2)CC1 [CBK283492]
viability at 28.5 h, 10 µM: 109%

O=C1NC2=C(C(=O)N(CC3CCCO3)C2)C(c2ccccc2)N1 (stereo not drawn) [CBK283494]
viability at 28.5 h, 10 µM: 100%

CCN(CC)C(=O)N1CCC2(CC1)CC(=O)c1ccccc1O2 [CBK283495]
viability at 28.5 h, 10 µM: 105%

CCN(CC)C(=O)CN1CC=C(c2ccc(C)o2)CC1 [CBK283497]
viability at 28.5 h, 10 µM: 100%

c1coc(-c2nc3cnccn3c2NC2CCCCC2)c1 [CBK283498]
viability at 28.5 h, 10 µM: 93.6%

CC(C)(C)NC(=O)CN1CCC(c2ccccc2F)CC1 [CBK283499]
viability at 28.5 h, 10 µM: 92.1%

O=C(Cc1cccs1)N1CCC(O)(c2cccnc2)CC1 [CBK283501]
viability at 28.5 h, 10 µM: 104%

O=C(c1cccnc1)C1CCN(C(=O)C2CCCC2)CC1 [CBK283508]
viability at 28.5 h, 10 µM: 96.2%

COC(=O)[C@H]1CN(C(=O)c2ccncc2)C[C@@H]1c1ccc(F)cc1 [CBK283509]
viability at 28.5 h, 10 µM: 94.2%

COC(=O)[C@H]1CN(C(=O)c2cn(C)nc2C)C[C@@H]1c1ccccc1F [CBK283511]
viability at 28.5 h, 10 µM: 88.2%

Cc1oc(C2CC2)cc1C(=O)N1CCC(c2ccncc2)CC1 [CBK283514]
viability at 28.5 h, 10 µM: 95.2%

Cc1ccc(C(C)C(=O)N2CCC(C(=O)c3cccnc3)CC2)cc1 (stereo not drawn) [CBK283516]
viability at 28.5 h, 10 µM: 93.5%

O=C(c1cccnc1)C1CCN(C(=O)Cc2ccsc2)CC1 [CBK283517]
viability at 28.5 h, 10 µM: 90.7%

COC(=O)[C@H]1CN(C(=O)CN2CCCC2=O)C[C@@H]1c1ccccc1F [CBK283518]
viability at 28.5 h, 10 µM: 89.2%

CCn1c(C(CC(C)C)NC(=O)c2ccco2)nc2cccnc21 (stereo not drawn) [CBK283523]
viability at 28.5 h, 10 µM: 94.3%

Cc1ccsc1-c1nc2cnccn2c1NC1CCCC1 [CBK283524]
viability at 28.5 h, 10 µM: 93.9%

CC(C)n1c(=O)n(CC(=O)N2CCCCC2)c2cccnc21 [CBK283526]
viability at 28.5 h, 10 µM: 90.6%

CC(C)n1c(=O)n(CC(=O)N2CCCCCC2)c2cccnc21 [CBK283527]
viability at 28.5 h, 10 µM: 92.4%

O=C(c1cccnc1)C1CCN(C(=O)CC2CC3CCC2C3)CC1 (stereo not drawn) [CBK283530]
viability at 28.5 h, 10 µM: 95.1%

CC(C)n1c(=O)n(CCN2CCCC2)c2cccnc21 [CBK283532]
viability at 28.5 h, 10 µM: 98.6%

CCN(CC)C(=O)N1CCC(c2cccnc2)CC1 [CBK283535]
viability at 28.5 h, 10 µM: 99.9%

Cn1ccnc1C1(O)CCN(C(=O)C2(c3ccccc3)CC2)CC1 [CBK283538]
viability at 28.5 h, 10 µM: 98.4%

Cn1ccnc1C1(O)CCN(C(=O)c2ccc(F)cc2)CC1 [CBK283541]
viability at 28.5 h, 10 µM: 91.5%

Cn1ccnc1C1(O)CCN(C(=O)c2cccc(F)c2)CC1 [CBK283543]
viability at 28.5 h, 10 µM: 107%

O=C(c1ccncc1)N1C2CCC1CC(O)(c1ccc(F)cc1)C2 (stereo not drawn) [CBK283545]
viability at 28.5 h, 10 µM: 95.6%

CC(=O)NC1(c2ccc(F)cc2)CCN(C(=O)C2CCCCC2)CC1 [CBK283546]
viability at 28.5 h, 10 µM: 96.9%

O=C(CN1CCC(c2ccccc2F)CC1)N1CCOCC1 [CBK283548]
viability at 28.5 h, 10 µM: 89.3%

CCN(CC)C(=O)CN1CCC(c2ccccc2F)CC1 [CBK283549]
viability at 28.5 h, 10 µM: 94%

Cc1ccc(C2=CCN(CC(=O)Nc3nccs3)CC2)o1 [CBK283557]
viability at 28.5 h, 10 µM: 93.7%

COc1ccc(C2CCN(CC(=O)NCc3ccco3)CC2)cc1 [CBK283562]
viability at 28.5 h, 10 µM: 103%

COc1ccc(C2CCN(Cc3ccncc3)CC2)cc1 [CBK283563]
viability at 28.5 h, 10 µM: 95.8%

COc1ccc(C2CCN(CC(=O)NC3CCCC3)CC2)cc1 [CBK283565]
viability at 28.5 h, 10 µM: 98%

O=C(CN1CCC(c2ccc(F)cc2)CC1)Nc1nccs1 [CBK283566]
viability at 28.5 h, 10 µM: 90%

Cc1csc(NC(=O)CN2CCC(c3ccc(F)cc3)CC2)n1 [CBK283567]
viability at 28.5 h, 10 µM: 94.2%

COc1ccc(C(NC(=O)N(C(C)C)C(C)C)c2nccn2C)cc1 (stereo not drawn) [CBK283568]
viability at 28.5 h, 10 µM: 111%

Cc1csc(NC(=O)CN2CCC(c3ccccc3F)CC2)n1 [CBK283569]
viability at 28.5 h, 10 µM: 109%

Cc1ccc(C2=CCN(CC(N)=O)CC2)o1 [CBK283570]
viability at 28.5 h, 10 µM: 98.3%

COc1ccccc1C1(NC(=O)Cn2nc(C)cc2C)CCCC1 [CBK283573]
viability at 28.5 h, 10 µM: 101%

CCc1nn(CC(=O)N2CCCCC2)c(=O)c2cc3oc(C)cc3n12 [CBK283575]
viability at 28.5 h, 10 µM: 104%

O=C(CN1CCC(c2ccccc2F)CC1)N1CCCCC1 [CBK283577]
viability at 28.5 h, 10 µM: 97.3%

O=C(CN1CCC(c2ccccc2F)CC1)N1CCCC1 [CBK283578]
viability at 28.5 h, 10 µM: 98.2%

Fc1ccc(CN2CCC(n3cnc4cccnc43)CC2)cc1 [CBK283580]
viability at 28.5 h, 10 µM: 98.2%

c1ccc(CCN2CCC(n3cnc4cccnc43)CC2)cc1 [CBK283581]
viability at 28.5 h, 10 µM: 88.5%

CCc1nn(CC(=O)N(CC)CC)c(=O)c2cc3oc(C)cc3n12 [CBK283583]
viability at 28.5 h, 10 µM: 99.5%

Cc1nc2c(c(=O)[nH]1)CN(C(=O)Cc1c(F)cccc1Cl)CC2 [CBK283589]
viability at 28.5 h, 10 µM: 92.1%

Cc1cc2c(cc3c(=O)n(CC(=O)N4CCCCCC4)nc(C)n32)o1 [CBK283591]
viability at 28.5 h, 10 µM: 103%

Cc1ccnn1CCC(=O)NC1(c2ccc(F)cc2)CCCC1 [CBK283600]
viability at 28.5 h, 10 µM: 115%

Cc1ccc(C2=CCN(CC(=O)Nc3ccc(N(C)C)cc3)CC2)o1 [CBK283604]
viability at 28.5 h, 10 µM: 95.5%

Cc1ccc(C2=CCN(CC(=O)NC3CCCC3)CC2)o1 [CBK283605]
viability at 28.5 h, 10 µM: 92%

Cc1ccc(C2=CCN(CC(=O)Nc3nc(C)c(C)s3)CC2)o1 [CBK283607]
viability at 28.5 h, 10 µM: 99.1%

CCN(CC)C(=O)Cn1nc(C)n2c(cc3oc(C)cc32)c1=O [CBK283609]
viability at 28.5 h, 10 µM: 93.7%

COc1cccc(C2(NC(=O)c3cnsc3)CCCC2)c1 [CBK283611]
viability at 28.5 h, 10 µM: 94.9%

CC(=O)NC1(c2ccc(F)cc2)CCN(CC(=O)NCC2CC2)CC1 [CBK283614]
viability at 28.5 h, 10 µM: 93.9%

Cc1c(C(=O)O[C@H]2C[C@@H](c3ccc(F)cc3)N(C)C2=O)cnn1C [CBK283616]
viability at 28.5 h, 10 µM: 103%

CC(=O)NC1(c2ccccc2F)CCN(CC(=O)N(C)C)CC1 [CBK283618]
viability at 28.5 h, 10 µM: 103%

CCN(CC)C(=O)Cn1nc(C)n2c(cc3occc32)c1=O [CBK283620]
viability at 28.5 h, 10 µM: 86.7%

O=C(Cn1ncc2cccn2c1=O)c1ccc(F)cc1 [CBK283627]
viability at 28.5 h, 10 µM: 82.7%

CC(C)(C)NC(=O)CN1CCC(c2ccc(F)cc2)CC1 [CBK283629]
viability at 28.5 h, 10 µM: 90.1%

Cc1cc2c(cc3c(=O)n(CC(=O)N4CCCCC4)nc(C)n32)o1 [CBK283630]
viability at 28.5 h, 10 µM: 83.4%

Cc1cc2c(cc3c(=O)n(CC(=O)N4CCCC4)nc(C)n32)o1 [CBK283631]
viability at 28.5 h, 10 µM: 93.1%

Cc1ccc(C2=CCN(CC(=O)N(C)C3CCCCC3)CC2)o1 [CBK283633]
viability at 28.5 h, 10 µM: 91.6%

O=C(Cc1ccccc1F)N1CCC(n2cnc3cccnc32)CC1 [CBK283635]
viability at 28.5 h, 10 µM: 87.7%

O=C(c1cc(F)cc(F)c1)N1CCC(n2cnc3cccnc32)CC1 [CBK283636]
viability at 28.5 h, 10 µM: 88.6%

CCc1nc2cccnc2n1CCNC(=O)c1cccs1 [CBK283638]
viability at 28.5 h, 10 µM: 94.3%

O=C(CN1CCC(c2ccc(F)cc2)CC1)NCc1ccco1 [CBK283641]
viability at 28.5 h, 10 µM: 94.9%

COc1ccccc1C1(NC(=O)c2cnsc2)CCCC1 [CBK283643]
viability at 28.5 h, 10 µM: 84.5%

O=C(CCn1c2ccccc2c2ccccc21)N1CCn2cnnc2C1 [CBK283645]
viability at 28.5 h, 10 µM: 90.4%

Cc1nc2c(c(=O)[nH]1)CN(C(=O)c1cc(C3CC3)oc1C)CC2 [CBK283650]
viability at 28.5 h, 10 µM: 103%

Cc1cc(C(F)(F)F)c2c(NC/C=C/c3ccco3)n[nH]c2n1 [CBK283651]
viability at 28.5 h, 10 µM: 92.7%

Cc1nn(CC(=O)N(C)C2CCCCC2)c(=O)c2cc3occc3n12 [CBK283653]
viability at 28.5 h, 10 µM: 92.4%

CCc1nn(CC(=O)N(CC)CC)c(=O)c2cc3occc3n12 [CBK283656]
viability at 28.5 h, 10 µM: 91%

CCc1nn(CC(=O)N(C(C)C)C(C)C)c(=O)c2cc3occc3n12 [CBK283658]
viability at 28.5 h, 10 µM: 89.3%

COc1cccc(C2(NC(=O)c3c(C)noc3C)CCCC2)c1 [CBK283659]
viability at 28.5 h, 10 µM: 98.1%

COc1cccc(C2(NC(=O)CCn3cccn3)CCCC2)c1 [CBK283660]
viability at 28.5 h, 10 µM: 94.5%

COc1ccc(C2(NC(=O)Cn3ccnc3)CCCCC2)cc1 [CBK283661]
viability at 28.5 h, 10 µM: 84%

O=C(NCCc1ccccc1)c1ncoc1-c1cccs1 [CBK283662]
viability at 28.5 h, 10 µM: 91.8%

COc1ccc(CCNC(=O)c2ncoc2-c2cccs2)cc1 [CBK283663]
viability at 28.5 h, 10 µM: 103%

Cc1cc(C)n(CCC(=O)N2CCCC2c2nc3ccccc3[nH]2)n1 (stereo not drawn) [CBK283664]
viability at 28.5 h, 10 µM: 106%
